Results reported in patent US10512673B2, “Use of peptide-based inhibitors of the stat3-IL10 pathway for treating bacterial infection and granulomatous disease” (The United States of America, as Represented by the …, priority 2015, dated 2019).
“Also recorded” adds a separate entry of the source. Where no end group is shown, it is not given here. [ ]: non-standard residue; d: D form. The star is where a group is joined. Palmitoyl = CCCCCCCCCCCCCCCC(=O)*

Legend:
[1] = system: stat3; parameters: species or system C57BL/6 mice; details: mouse, in vivo
[2] = system: IL-12p40; assay: Cytometric bead array for IL-12p40 in lung homogenates; type: in vivo, C57BL/6 mice; details: CBA, 100 μg/dose, vs control mice
[3] = system: arg1; assay: Arginase activity in lung homogenates; type: in vivo, C57BL/6 mice; details: 100 μg/dose, vs untreated infected mice
Experimental: (§1) The quantification of end effector molecules and enzymes involved in the host antimicrobial activity in the lungs of mice were performed using lung homogenates obtained as indicated above. Lung homogenate supernatants were used in a Griess reaction (G 7921, Molecular probes, Invitrogen, Eugene, Oreg.), Arginase assay (Bioassay Systems, DARG-200), NADPH (Bioassay Systems, ECNP-100), and lysozyme (Molecular Probes E-22013).
The level of arginase activity in each lung homogenate was performed using the Quanti-Chrom Arginase Assay Kit (Bio Assay Systems, Hayward, Calif.). Briefly, protein concentration was normalized to 100 μg/ml. As a control, an aliquot of normalized protein was heat-inactivated at 90° C. for 10 min. 40 μl of untreated or heat-inactivated sample was incubated at 37° C. for 60 min with 10 μl of 5× reagent. Thereafter, the reaction was processed as recommended by the manufacturer and analyzed in a plate reader (Bio-Rad, Hercules, Calif.) at an absorbance of 430 nm. The absorbance of the heat-inactivated sample was subtracted from the respective untreated sample and then compared to urea standards. Activity of the arginase was reported in mU/mg of protein.

[4] = system: bax; assay: qRT-PCR of bax transcript in lungs; type: in vivo, C57BL/6 mice; details: 100 μg/dose
Experimental: (§2) The upper right lobe of the lungs from each mouse were homogenized in Trizol (Invitrogen) using Next Advance bullet blender (Averill Park, N.Y.) and frozen at −80° C. immediately. RNA was extracted following the manufacturer's protocol. Trizol DNA was digested with RQ1 RNase-free DNase (Promega, Madison, Wis.) and RNA was re-isolated using Trizol. Finally, the concentration of RNA in each sample was measured by spectrophotometry and the RNA was reverse transcribed with M-Mulv (New England Bio Labs, Ipswich, Mass.) and random hexamers (Roche, Basel, Switzerland).
(§3) When lung homogenates from each mouse were used to determine the levels of expression of Bcl-2 and Atg-5 protein using ELISA, the results were similar to those obtained by qRT-PCR.

[5] = system: NADPH; assay: NADPH assay in lung homogenates; type: in vivo, C57BL/6 mice; details: 100 μg/dose, vs untreated infected mice
Experimental: as §1
For the NADPH assay, each lung homogenate was mixed in a 1.5 mL Eppendorf tube with 100 μL NADPH extraction buffer for NADPH determination. Extracts then were heated at 60° C. for 5 min and then 20 μl assay buffer and 100 μl of the opposite extraction buffer were added to neutralize the extracts. Samples were briefly vortexed and centrifuged at 13,000 rpm for 5 min. The resulting supernatant was used for NADPH assays. 40 μl of standards were then transferred into wells of a clear bottom 96-well plate. For each well of the reaction, 80 μL working reagent were added per well quickly. Optical density for time “zero” (OD0) optical density after 30 min incubation (OD30) at room temperature were read at 565 nm (520-600 nm).

[6] = system: beclin-1; assay: qRT-PCR of beclin-1 transcript in lungs; type: in vivo, C57BL/6 mice; details: 100 μg/dose
Experimental: as §2, §3

[7] = system: IFNγ; assay: Cytometric bead array for IFNγ in lung homogenates; type: in vivo, C57BL/6 mice; details: CBA, 100 μg/dose, vs control mice
[8] = system: TNFα; assay: Cytometric bead array for TNFα in lung homogenates; type: in vivo, C57BL/6 mice; details: CBA, 100 μg/dose, vs control mice
[9] = system: lysozyme; assay: Lysozyme assay in lung homogenates; type: in vivo, C57BL/6 mice; details: 100 μg/dose, vs untreated infected mice
Experimental: as §1
The Lysozyme assay was performed as per manufacturer's instructions. Briefly, experimental samples were first diluted in 1× reaction buffer. A volume of 50 μl was used for each reaction. Then, 50 μl of the 50 μg/ml DQ lysozyme substrate were added to each microplate well containing the experimental or the standard curve samples. The reaction mix was then incubated at 37° C. for 30 min protected from light. The fluorescence in each of the samples was measured at absorption maxima at ˜494 nm and fluorescence emission maxima at ˜518 nm.

[10] = system: arg1; assay: RT-PCR of arg1 transcript in lungs; type: in vivo, C57BL/6 mice; details: for mRNA arg1 expression (in words): mouse, in vivo
[11] = system: Mycobacterium tuberculosis (Erdman strain); details: in vivo
[12] = system: Il-10; assay: Cytometric bead array for IL-10 in lung homogenates; parameters: species or system C57BL/6 mice; details: mouse, in vivo
[13] = system: Il-10; parameters: species or system C57BL/6 mice; details: mouse, in vivo
[14] = system: bcl-2; assay: qRT-PCR of bcl-2 transcript in lungs; type: in vivo, C57BL/6 mice; details: 100 μg/dose
Experimental: as §2, §3

[15] = system: pSTAT3 (pY705); assay: ELISA for pSTAT3 in lung homogenates; type: in vivo, C57BL/6 mice; details: after two weeks of treatment (100 μg/dose), vs untreated infected mice
Experimental: Lung homogenates were screened for pSTAT3 (pY705 (tyrosine 705)) by ELISA following manufacturer's recommendations (Life Technologies). Briefly, the lung homogenates were re-suspended in the cell extraction buffer and incubated during 30 minutes on ice with intermittent vortexing followed by pelleting of the cell debris. Supernatants from each sample were collected and screened for their content of STAT3 (pY705). Standards were prepared using purified recombinant phosphorylated STAT3 protein. Thereafter, 100 μl of standards and diluted samples or control aliquots were distributed into microtiter wells and were incubated in the wells pre-coated with anti-pSTAT3 antibody. The reactions were developed using the detection anti-pSTAT3 antibody followed by 30 minutes incubation at RT with anti-rabbit IgG HRP. The reactions were visualized by incubation with a chromogenic substrate of HRP during 30 minutes at room temperature. The reactions were stopped with 100 μl of stop solution added to each well. Absorbance for each well was read at 450 nm.

[16] = system: atg5; assay: qRT-PCR of atg5 transcript in lungs; type: in vivo, C57BL/6 mice; details: 100 μg/dose
Experimental: as §2, §3

[17] = system: nos2; assay: NOS2 activity in lung homogenates (Griess reaction); type: in vivo, C57BL/6 mice; details: 100 μg/dose, vs untreated infected mice
Experimental: as §1
For the Griess reaction, reagents were acclimated at room temperature for 20 min prior to the assay. Thereafter, the samples were centrifuged at 1200 rpm for 2 min and the Griess reaction was performed following the manufacturer's instructions. Briefly, samples and prepared standards were diluted following the manufacturer's instructions with distilled sterile water in a 96 well plate. 20 μl of Griess reaction were added to each reaction well. Samples and standards were incubated for 30 minutes in the dark. Thereafter, samples were read using a Biotech Synergy 2 Multi-Mode Micro Plate Reader [U5] spectrophotometer at 546 nm.

[18] = system: nos2; assay: RT-PCR of nos2 transcript in lungs; type: in vivo, C57BL/6 mice; details: for mRNA nos2 expression (in words): mouse, in vivo
[19] = system: granuloma lesions in the lungs; assay: Lung histopathology (H&E); parameters: species or system C57BL/6 mice; details: mouse, in vivo
[20] = system: pSTAT3; assay: Immunohistochemistry for pSTAT3 in lung tissue sections; parameters: species or system C57BL/6 mice; details: mouse, in vivo
[21] = system: Mycobacterium tuberculosis (Erdman strain); details: in vivo; remark: listed apart in the source
[22] = system: bcl-2; assay: ELISA for Bcl-2 protein in lung homogenates; type: in vivo, C57BL/6 mice; details: 100 μg/dose, vs untreated infected mice
From the text: as §3

[23] = mouse, in vivo
[24] = system: IL-6; assay: Cytometric bead array for IL-6 in lung homogenates; type: in vivo, C57BL/6 mice; details: CBA, 100 μg/dose, vs control mice
[25] = RT-PCR, lungs, 100 μg/dose, vs control mice

Substance	pulmonary expression of stat3 transcript [1]	expression level of IL-12p40 in the lungs [2]	Arg1 activity [3]	expression of bax transcript (in words) [4]	NADPH activity (pyridine nucleotide) [5]	expression of beclin-1 transcript (in words) [6]	level of IFNγ expression in the lungs [7]	level of TNFα in the lungs [8]	lysozyme activity (DQ substrate) [9]	change of pulmonary CFU (in words) [11]	level of IL-10 in lung homogenates [12]	pulmonary expression of il-10 transcript [13]	expression of bcl-2 transcript (in words) [14]	level of pSTAT3 in lung homogenates [15]	expression of atg5 transcript (in words) [16]	NOS2 activity (concentration of NO) [17]	histopathology of H&E stained lung sections [19]	pSTAT3 staining by IHC in lung tissue sections [20]	mRNA arg1 expression (in words) [10]	reduction of pulmonary bacterial load [11]	other results
Ac-EETQLSPKTSGFGSDTSGHLK-E-Pal (Ac-[dE][dE][dT][dQ][dL][dS][dP][dK][dT][dS]G[dF]G[dS][dD][dT][dS]G[dH][dL][dK](Palmitoyl); not fully specified; also: name K-E-Pal / C-terminal Glu-palmitoyl: Glu between Lys and palmitoyl?) [IL10R1-14]	no significant changes	down	increased	reduced expression	lower or no increase	reduced expression	increased and up	reduced	lower or no increase	slight increase; also recorded: only the group of mice receiving the peptide inhibitor ST3-H2A2 had reduced the pulmonary CFU	no significant changes	no significant changes	reduced expression	no significant changes	increased expression	lower or no increase	–	–	–	–	increase in arg1 transcript expression [10, 25]: 10 fold; increase in nos2 transcript expression [18, 25]: 2 fold
LDTRYLEQLHKLY [ST3-H2A2]	no significant changes	increased and up	reduced or not changed	–	significantly elevated	–	decreased and down	reduced	significantly elevated	–	little change	increased levels of expression	–	little change	–	significantly elevated	increased numbers of clusters and highly packed lymphocytes	reduced levels of pSTAT3 staining in the center of the granuloma lesions	decreased expression	1.7 log10 CFU	increase in expression of bax transcript [4]: > 3 fold; increase in expression of beclin-1 transcript [6]: > 3 fold; reduction of splenic bacilli load [21]: 0.9 log10CFU; level of Bcl-2 protein in lung homogenates [22]: significantly increased; reduction of pulmonary CFU [11]: 0.6 log10; adverse effects during treatment (body weight) [23]: mild weight loss; expression level of IL-6 in the lungs [24]: increased; increase in expression of bcl-2 transcript [14]: > 3 fold; increase in expression of atg5 transcript [16]: > 3 fold; mRNA nos2 expression (in words) [18]: increased more significantly
ε-Pal-KLVTLPLISSLQSSE-NH2 (K(Palmitoyl)LVTLPLISSLQSSE-NH2; N-terminus assumed; SMILES CCCCCCCCCCCCCCCC(=O)NCCCC[C@H](N)C(=O)N[C@@H](CC(C)C)C(=O)N[C@H](C(=O)N[C@H](C(=O)N[C@@H](CC(C)C)C(=O)N1CCC[C@H]1C(=O)N[C@@H](CC(C)C)C(=O)N[C@H](C(=O)N[C@@H](CO)C(=O)N[C@@H](CO)C(=O)N[C@@H](CC(C)C)C(=O)N[C@@H](CCC(N)=O)C(=O)N[C@@H](CO)C(=O)N[C@@H](CO)C(=O)N[C@@H](CCC(=O)O)C(N)=O)[C@@H](C)CC)[C@@H](C)O)C(C)C) [IL10R1-7]	lower levels	decreased and up	reduced or not changed	reduced expression	significantly elevated	reduced expression	decreased and down	reduced and down	significantly elevated	only the group of mice receiving the peptide inhibitor ST3-H2A2 had reduced the pulmonary CFU	lower levels	lower levels	reduced expression	lower levels	increased expression	significantly elevated	increased numbers of clusters and highly packed lymphocytes	reduced levels of pSTAT3 staining in the center of the granuloma lesions	reduction	0.6	expression level of IL-6 in the lungs [24]: decreased; mRNA nos2 expression (in words) [18]: reduction in transcript expression for nos2 and arg1 but not significantly for nos2
